# Experimental data from patent US8785439B2, “2,5,7-substituted oxazolopyrimidine derivatives” (Sanofi, priority 2010, dated 2014).
# Molecular target: T1, human Edg-1 receptor (Homo sapiens, UniProt P21453)
# T1 construct: FLAG (N); expressed in transfected cells; membrane preparation
# Assay: GTP-γ-S assay using human Edg-1 receptors (SPA, CHO Flp-In cell membrane preparation)
# Format: biochemical
# Conditions: test compound at 10 μM; high control 10 μM S1P regarded as 100% activation; background-corrected; triplicate
# In short: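 Membranes from CHO Flp-In cells stably overexpressing N-terminally FLAG-tagged human Edg-1 were used in a scintillation-proximity GTP-γ-S binding assay to measure receptor activation by compounds.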
# T1 sequence (P21453 whole entry): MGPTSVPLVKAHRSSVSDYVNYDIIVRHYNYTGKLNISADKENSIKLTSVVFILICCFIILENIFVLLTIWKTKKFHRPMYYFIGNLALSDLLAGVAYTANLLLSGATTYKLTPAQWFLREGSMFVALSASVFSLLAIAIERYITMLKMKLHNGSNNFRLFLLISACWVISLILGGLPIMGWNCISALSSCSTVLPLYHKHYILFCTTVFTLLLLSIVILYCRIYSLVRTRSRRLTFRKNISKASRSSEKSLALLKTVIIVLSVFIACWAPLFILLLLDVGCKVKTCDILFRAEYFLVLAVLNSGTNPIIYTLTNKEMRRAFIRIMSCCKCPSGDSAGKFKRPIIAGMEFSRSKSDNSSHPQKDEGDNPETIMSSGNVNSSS
row,Compound,% Activation (Edg-1 receptor activation in percent of the activation by 10 μM S1P)
1,"CCCOc1nc(Oc2ccc(=O)n(C)n2)nc2oc(-c3cc(F)ccc3Cl)nc12 [Example 114, 6-[2-(2-chloro-5-fluoro-phenyl)-7-propoxy-oxazolo[5,4-d]pyrimidin-5-yloxy]-2-methyl-2H-oyridazin-3-one]",96%

# Same assay, conditions: test compound at 10 μM; high control 10 μM S1P regarded as 100% activation; background-corrected; triplicate; read-out: % Activation (Edg-1 receptor activation in percent of the activation by 10 μM S1P)
row,Compound,activation at 10 µM
1,"CCCOc1nc(Oc2cccc(S(N)(=O)=O)c2)nc2oc(-c3cccc(C)c3)nc12 [Example 20, 3-(7-propoxy-2-(3-methyl-phenyl)-oxazolo[5,4-d]pyrimidin-5-yloxy)-benzenesulfonamide]",83%
2,"CCOc1nc(Oc2ccccc2F)nc2oc(-c3ccc[n+]([O-])c3)nc12 [Example 7, 7-Ethoxy-5-(2-fluoro-phenoxy)-2-(1-oxy-pyridin-3-yl)-oxazolo[5,4-d]pyrimidine]",116%
3,"CCCOc1nc(Oc2ccc(C)nn2)nc2oc(-c3cccc(C)c3)nc12 [Example 19, 5-(6-methyl-pyridazin-3-yloxy)-7-propoxy-2-(3-methyl-phenyl)-oxazolo[5,4-d]pyrimidine]",62%
4,"CCOc1nc(Oc2cc(C)nn2C)nc2oc(-c3cccc(C)c3)nc12 [Example 26, 5-(2,5-dimethyl-2H-pyrazol-3-yloxy)-7-ethoxy-2-(3-methyl-phenyl)-oxazolo[5,4-d]pyrimidine]",101%
5,"CCCOc1nc(NC2CCC(F)(F)CC2)nc2oc(-c3cc(F)ccc3Cl)nc12 [Example 64, [2-(2-chloro-5-fluoro-phenyl)-7-propoxy-oxazolo[5,4-d]pyrimidin-5-yl]-(4,4-difluoro-cyclohexyl)-amine]",109%
6,"CCCOc1nc(Oc2ccc(=O)n(C)n2)nc2oc(-c3cccc(C)c3)nc12 [Example 56, 2-methyl-6-(7-propoxy-2-(3-methyl-phenyl)-oxazolo[5,4-d]pyrimidin-5-yloxy)-2H-pyridazin-3-one]",97%
7,"CCCOc1nc(Oc2cc(F)cc(F)c2)nc2oc(-c3cccc(C)c3)nc12 [Example 127, 5-(3,5-difluoro-phenoxy)-7-propoxy-2-(3-methyl-phenyl)-oxazolo[5,4-d]pyrimidine]",110%
8,"CCCOc1nc(Oc2cccc(C(C)(C)C)c2)nc2oc(-c3cccc(C)c3)nc12 [Example 125, 5-(3-tert-butyl-phenoxy)-7-propoxy-2-(3-methyl-phenyl)-oxazolo[5,4-d]pyrimidine]",61%
9,"CCCOc1nc(Oc2ccccc2F)nc2oc(-c3cc(C)c(OC)c(C)c3)nc12 [Example 5, 5-(2-Fluoro-phenoxy)-2-(4-methoxy-3,5-dimethyl-phenyl)-7-propoxy-oxazolo[5,4-d]pyrimidine]",111%
10,"CCCOc1nc(Oc2cccc(C#N)c2)nc2oc(-c3cccc(C)c3)nc12 [Example 87, 3-(7-propoxy-2-(3-methyl-phenyL)-oxazolo[5,4-d]pyrimidin-5-yloxy)-benzonitrile]",93%
11,"CCCOc1nc(Oc2c(Cl)cccc2Cl)nc2oc(-c3cccc(C)c3)nc12 [Example 86, 5-(2,6-dichloro-phenoxy)-7-propoxy-2-(3-methyl-phenyl)-oxazolo[5,4-d]pyrimidine]",98%
12,"CCCOc1nc(OCC2COC(C)(C)O2)nc2oc(-c3ccc(Cl)c(Cl)c3)nc12 (stereo not drawn) [Example 45, 2-(3,4-dichloro-phenyl)-5-(2,2-dimethyl-[1,3]dioxolan-4-ylmethoxy)-7-propoxy-oxazolo[5,4-d]pyrimidine]",74%
13,"CCCOc1nc(Oc2ccccc2F)nc2oc(-c3cccc(OC)c3)nc12 [Example 40, 5-(2-fluoro-phenoxy)-2-(3-methoxy-phenyl)-7-propoxy-oxazolo[5,4-d]pyrimidine]",120%
14,"CCCOc1nc(Oc2cc(F)cc(F)c2Cl)nc2oc(-c3cccc(C)c3)nc12 [Example 100, 5-(2-chloro-3,5-difluoro-phenoxy)-7-propoxy-2-(3-methyl-phenyl)-oxazolo[5,4-d]pyrimidine]",108%
15,"CCCOc1nc(Oc2ccc(OC)c(OC)c2)nc2oc(-c3cccc(C)c3)nc12 [Example 136, 5-(3,4-dimethoxy-phenoxy)-7-propoxy-2-(3-methyl-phenyl)-oxazolo[5,4-d]pyrimidine]",91%
16,"CC1(C)OCC(COc2nc(OCC3CC3)c3nc(-c4cc(F)ccc4Cl)oc3n2)O1 (stereo not drawn) [Example 34, 2-(2-chloro-5-fluoro-phenyl)-7-cyclopropylmethoxy-5-(2,2-dimethyl-[1,3]dioxolan-4-ylmethoxy)-oxazolo[5,4-d]pyrimidine]",99%

row,Compound,activation at 10 µM
1,"Clc1ccc(-c2nc3c(OCC4CC4)nc(Oc4ccccc4)nc3o2)cc1Cl [Example 110, 7-cyclopropylmethoxy-2-(3,4-dichloro-phenyl)-5-phenoxy-oxazolo[5,4-d]pyrimidine]",80%
2,"CCOc1nc(Oc2ccccc2F)nc2oc(-c3cc(F)ccc3Cl)nc12 [Example 30, 2-(2-chloro-5-fluoro-phenyl)-7-ethoxy-5-(2-fluoro-phenoxy)-oxazolo[5,4-d]pyrimidine]",134%
3,"CCCOc1nc(Oc2cccnc2)nc2oc(-c3cccc(OC)c3)nc12 [Example 41, 2-(3-methoxy-phenyl)-7-propoxy-5-(pyridin-3-yloxy)-oxazolo[5,4-d]pyrimidine]",102%
4,"Clc1ccc(-c2nc3c(OCC4CC4)nc(Oc4cccnc4)nc3o2)cc1Cl [Example 106, 7-cyclopropylmethoxy-2-(3,4-dichloro-phenyl)-5-(pyridin-3-yloxy)-oxazolo[5,4-d]pyrimidine]",117%
5,"CCCOc1nc(Oc2ccccc2)nc2oc(-c3cccc(F)c3)nc12 [Example 61, 2-(3-fluoro-phenyl)-5-phenoxy-7-propoxy-oxazolo[5,4-d]pyrimidine]",74%
6,"CCCOc1nc(OC2CCC(C)CC2)nc2oc(-c3cccc(C)c3)nc12 (stereo not drawn) [Example 70, 5-(4-methyl-cyclohexyloxy)-7-propoxy-2-(3-methyl-phenyl)-oxazolo[5,4-d]pyrimidine]",77%
7,"COc1c(C)cc(-c2nc3c(OC4COC4)nc(Oc4ccccc4F)nc3o2)cc1C [Example 8, 5-(2-Fluoro-phenoxy)-2-(4-methoxy-3,5-dimethyl-phenyl)-7-(oxetan-3-yloxy)-oxazolo[5,4-d]pyrimidine]",124%
8,"Cc1cccc(-c2nc3c(OCC4CC4)nc(Oc4ccccc4F)nc3o2)c1 [Example 29, 7-cyclopropylmethoxy-5-(2-fluoro-phenoxy)-2-(3-methyl-phenyl)-oxazolo[5,4-d]pyrimidine]",109%
9,"CCCOc1nc(Oc2ccc(F)c(C(F)(F)F)c2)nc2oc(-c3cccc(C)c3)nc12 [Example 129, 5-(4-fluoro-3-trifluoromethyl-phenoxy)-7-propoxy-2-(3-methyl-phenyl)-oxazolo[5,4-d]pyrimidine]",85%
10,"CCCOc1nc(Oc2ccc(C)c(Cl)c2)nc2oc(-c3cccc(C)c3)nc12 [Example 89, 5-(3-chloro-4-methyl-phenoxy)-7-propoxy-2-(3-methyl-phenyl)-oxazolo[5,4-d]pyrimidine]",96%
11,"CCCOc1nc(Oc2ccccc2F)nc2oc(-c3cccc(C)c3)nc12 [Example 103, 5-(2-fluoro-phenoxy)-7-propoxy-2-(3-methyl-phenyl)-oxazolo[5,4-d]pyrimidine]",109%
12,"Fc1ccc(Cl)c(-c2nc3c(OCC4CC4)nc(Oc4ccccc4F)nc3o2)c1 [Example 104, 2-(2-chloro-5-fluoro-phenyl)-7-cyclopropylmethoxy-5-(2-fluoro-phenoxy)-oxazolo[5,4-d]pyrimidine]",117%
13,"CCCOc1nc(Sc2nccs2)nc2oc(-c3cc(F)ccc3Cl)nc12 [Example 59, 2-(2-chloro-5-fluoro-phenyl)-7-propoxy-5-(thiazol-2-ylsulfanyl)-oxazolo[5,4-d]pyrimidine]",103%
14,"CCCOc1nc(Oc2cc(Cl)ccc2C)nc2oc(-c3cc(F)ccc3Cl)nc12 [Example 66, 2-(2-chloro-5-fluoro-phenyl)-5-(5-chloro-2-methyl-phenoxy)-7-propoxy-oxazolo[5,4-d]pyrimidine]",106%
15,"CCCOc1nc(Oc2ccc(C)c(F)c2)nc2oc(-c3cccc(F)c3)nc12 [Example 81, 5-(3-fluoro-4-methyl-phenoxy)-2-(3-fluoro-phenyl)-7-propoxy-oxazolo[5,4-d]pyrimidine]",89%
16,"CCCOc1nc(Oc2ccc(C)nn2)nc2oc(-c3cccc(F)c3)nc12 [Example 18, 2-(3-fluoro-phenyl)-5-(6-methyl-pyridazin-3-yloxy)-7-propoxy-oxazolo[5,4-d]pyrimidine]",42%
